Here are results for three molecules from US20150174283A1, “Smart, Self-Decontaminating Polymer and Method for Inhibiting The Growth Of A Bacteria and Fungus” (priority 2012, published 2015).

For one data set, the system named is Staphylococcus aureus. The data set is described as follows: S. aureus growth on TSA plates with or without hydroxylamine and polymer foams. It is filed as cell-based. As to conditions: TSA plates containing 500 uM HA, no polymer, 18 hours, 37 C. The text has this:
The microorganism, Staphylococcus aureus (S. aureus/Staph), was utilized. Staphylococcus aureus is an important bacterium to study and ultimately have the ability to inhibit, as Staphlococcus can cause a number of diseases as a result of infection. The strain Methicillin-resistant Staphylococcus aureus or MRSA is a multi-drug resistant bacterium, making any MRSA infection difficult to treat with standard antibiotics and is thus a more dangerous infection; the number of drug-resistant MRSA cases has increase by 90% over the past decade. MRSA is the most significant infection encountered in hospital settings, costing US hospitals $3.2 to 4.2 billion annually to treat infected patients. Patients with MRSA infections often require longer hospital stays and more time spent in intensive care units. […]

In a further data set the test system is host cells. As to conditions: cited from earlier work.
Data set [1] is described as follows: chlorination of thionin by enzymes in solution (bleaching followed at 598 nm). As to conditions: substrate glucose. It is filed as biochemical.
Protocol: The chlorinating activity of composite polymers was measured by following the chlorination of a colored substrate (thionin). The thionin is a blue-violet dye that absorbs at 598 nm and undergoes bleaching (to colorless) upon chlorination. A battery of tests were carried out in 100 mM phosphate citrate buffer at pH 4.0. […] The reaction mixture comprised 1.45 mL of the thionin/NaCl solution, 30 μL of the substrate solution (glucose or peroxide), and 25 μL of the enzyme solution (total). Buffer was used to replace the enzyme or substrate in control reactions.

Where only a bound is given, the exact number is not on record here.

Consider `NO` [HA, hydroxylamine], for which the S. aureus growth result in the data set with Staphylococcus aureus was “does not inhibit the growth”; in the data set on Staphylococcus aureus (listed as Hydroxylamine) it was “not effected”.
Consider `OO` [hydrogen peroxide, Hydrogen peroxide], for which, in the data set on host cells, the “concentration toxic to the host cells” value is given as greater than 3%.
In the case of glucose oxidase, the “absorbance of thionin at 598 nm, after two minutes” value in data set [1] (20 mM NaCl, pH 4.0) was 0.670. Besides, the “color change of thionin” value in data set [1] (thionin/NaCl solution, two minutes) is “no color change was observed”.
